≈ marks a conversion by molar mass, not a printed value.
Settings: buffer; pH 7.4; 200.0 µM

Structure (SMILES) | solubility kinetic [µg/mL]
O=C1Nc2ccccc2O/C1=C\c1ccccc1 | 1.2 (≈ 5.06 µM)
Clc1ccc(C2Nc3cccc4cccc(c34)N2)cc1Cl | 0.4 (≈ 1.27 µM)
CC(Sc1nnc(-c2ccco2)n1C)C(=O)NC1CCCC1 (stereo not drawn) | > 48.1
O=C(O)Cc1ccc(NC(=O)Nc2ccc3c(c2)OCO3)cc1 | > 47.1
CCCCN(C(=O)c1cnccn1)c1c(N)n(CCC)c(=O)[nH]c1=O | 46.9 (≈ 135 µM)
CCCOc1ccc(C(=O)OCCN(CC)CC)cc1N.Cl | > 49.6
CCN(CC)C(=S)SCC(=O)Nc1ncc2c(n1)CCCC2=O | 15.5 (≈ 44 µM)
Cc1nn(CC(=O)NC2CCS(=O)(=O)C2)c(C)c1[N+](=O)[O-] (stereo not drawn) | > 47.4
Cc1ncc([N+](=O)[O-])n1CC(=O)Nc1ccc(F)cc1F | 34 (≈ 115 µM)
Cc1cc(Cl)cc(Cl)c1OCCN1CCCC1 | 30.2 (≈ 110 µM)
COc1ccc(CNCc2ccncc2)c(OC)c1.Cl | > 44.2
CC(NC(=O)c1ccccc1Br)C1CC2CCC1C2 (stereo not drawn) | 20.6 (≈ 63.9 µM)
COc1cc(C)ccc1OC(C)C(=O)Nc1ccc(N2CCCCC2)cc1 (stereo not drawn) | 2.7 (≈ 7.33 µM)
COc1ccc(NC(=O)COC(=O)C23CC4CC(CC(NC(C)=O)(C4)C2)C3)cc1S(=O)(=O)N1CCOCC1 | > 82.4
O=C(Cc1ccccc1)N1CCN=C1SCc1cccc([N+](=O)[O-])c1 | 9.7 (≈ 27.3 µM)
O=C(CN1CCCC1)Nc1c(Cl)cccc1Cl | 36.9 (≈ 135 µM)
O=C(c1cccs1)N1CCN(C23CC4CC(CC(C4)C2)C3)CC1 | > 49.6
Fc1ccc(F)c(NC2=NCCCCC2)c1 | > 33.6
Cc1ccc(NS(=O)(=O)c2ccc(C(C)C)cc2)cc1S(=O)(=O)N1CCOCC1 | 27.4 (≈ 62.5 µM)
Cc1ccc(C)c(S(=O)(=O)N2CCN(C(=O)[C@@H]3CCCN3C(=O)c3cccs3)CC2)c1 | 40.4 (≈ 87.5 µM)

More lines, now with the values ahead:

solubility kinetic [µg/mL] | Structure (SMILES)
34.8 (≈ 139 µM) | O/N=C/Cc1[nH]c2ccccc2c1-c1ccccc1
9.7 (≈ 34 µM) | CCc1cc(C(=O)N2CCCc3ccccc32)sc1C
33.5 (≈ 140 µM) | O=C(C(Cl)c1ccccc1)N1CCOCC1 (stereo not drawn)
> 44.9 | O=C(O)c1cccc(N2C(=O)CSC2c2ccccc2)c1 (stereo not drawn)
> 48 | O=C(OCC(=O)c1ccccc1Br)c1ccncc1
34.4 (≈ 121 µM) | Cc1cccc(OCCNC(=O)CCc2ccccc2)c1
> 65.7 | O=C(COC(=O)c1ccccc1OCc1ccccc1Cl)NC1CCS(=O)(=O)C1 (stereo not drawn)
37.6 (≈ 142 µM) | O=C(O)c1cccnc1Sc1ccccc1Cl
38.9 (≈ 134 µM) | O=C(/C=C/c1ccccc1Cl)NCCCn1ccnc1
> 42.3 | NS(=O)(=O)c1ccc(CCN2C(=O)CCC2=O)cc1
38.4 (≈ 144 µM) | CCC(=O)Nc1ccc2oc(-c3cccnc3)nc2c1
45.1 (≈ 137 µM) | COc1ccccc1OCCC(=O)NCc1ccc2c(c1)OCO2
> 34.7 | Cc1ccccc1NC(=O)Cc1cccs1
> 59.3 | O=C(CNC(=O)c1ccc(Br)o1)NCC1COc2ccccc2O1 (stereo not drawn)
> 51.2 | O=C(Nc1scc(-c2ccccc2)c1C(=O)O)c1ccccc1F
> 57.4 | CCNC(=S)NNC(=O)c1ccc(S(=O)(=O)NCc2ccco2)cc1
> 39.2 | CC(=O)CC1(OC(C)=O)C(=O)N(C)c2ccccc21 (stereo not drawn)
30.6 (≈ 142 µM) | Cc1cc(=O)[nH]c(NCc2ccccc2)n1
32.5 (≈ 95.5 µM) | Cc1cc(Br)ccc1S(=O)(=O)NCc1ccccc1
< 0.3 | CCN1C(=O)NC(c2ccccc2)(c2ccccc2)C1=O
50.4 (≈ 140 µM) | CCOc1ccccc1NC(=O)CCCNC(=O)c1ccc(Cl)cc1
> 42.9 | CCC(C(=O)OC)n1cnc2c(oc3ccccc32)c1=O (stereo not drawn)
> 50.2 | COC(=O)C1C(c2ccccc2)NC(=O)NC1(O)C(F)(F)Cl (stereo not drawn)
6.9 (≈ 21.9 µM) | Cc1cccc(C(=O)Nc2sc3c(c2C(=O)O)CCCC3)c1
0.6 (≈ 2 µM) | Cc1ccc(O)c(NC(=O)c2cc(-c3cccs3)on2)c1
0.8 (≈ 3.97 µM) | CC(C)(C)c1cc(-c2ccccc2)no1
21.4 (≈ 78.9 µM) | CC(=O)c1c(C)[nH]c(C(=O)Nc2cccc(C)n2)c1C
37.5 (≈ 140 µM) | COc1ccccc1OCc1nc2ccccc2n1C

— PubChem BioAssay AID1996
